Reference: paper PMC6009938, “The use of dimethylsulfoxide as a solvent in enzyme inhibition studies: the case of aldose reductase” (Journal of Enzyme Inhibition and Medicinal Chemistry, 2017)

What was measured:
Type in all cases: biochemical
[1] = biological target: T1, human recombinant AR (hAR) (Homo sapiens, UniProt P15121); assay: Aldose reductase assay, L-idose reduction (NADPH oxidation at 340 nm); details: for Inhibition model / Ki / Ki′: substrate L-idose
T1 construct: made in house
Method: (§1) One unit of enzyme activity is the amount that catalyses the conversion of 1 µmol of substrate/min in the above assay conditions. These assay conditions were also adopted to assess the effectiveness of inhibitors when L-idose, trans-4-hydroxy-2,3-nonenal (HNE), or 3-glutathionyl-4-hydroxynonenal (GSHNE) was used as a substrate instead of GAL.
(§2) The human recombinant AR (hAR) was expressed and purified as previously described. […] The purified enzyme was stored at −80 °C in a 10 mM sodium phosphate buffer pH 7.0 containing 2 mM DTT and 30% (w/v) glycerol. Before use, the enzyme was extensively dialysed against a 10 mM sodium phosphate buffer pH 7.0.

[2] = biological target: T1, human recombinant AR (hAR); assay: Aldose reductase assay, HNE reduction (NADPH oxidation at 340 nm); details: for Inhibition model / Ki′: substrate HNE
Method: (§3) The AR activity was determined at 37 °C as previously described, following the decrease in absorbance at 340 nm due to NADPH oxidation (ε 340 = 6.22 mM^−1·cm^−1) through a Biochrom Libra S60 spectrophotometer (Biochrom, Cambridge, United Kingdom). The standard assay mixture contained a 0.25 M sodium phosphate buffer pH 6.8, 0.18 mM NADPH, 0.4 M ammonium sulphate, 0.5 mM EDTA and 4.7 mM GAL. One unit of enzyme activity is the amount that catalyses the conversion of 1 µmol of substrate/min in the above assay conditions. These assay conditions were also adopted to assess the effectiveness of inhibitors when L-idose, trans-4-hydroxy-2,3-nonenal (HNE), or 3-glutathionyl-4-hydroxynonenal (GSHNE) was used as a substrate instead of GAL.
as §2
The protein concentration was determined according to Bradford[35], using BSA as a standard protein. HNE was prepared as previously described. GSHNE was prepared as previously described[37] by incubation of GSH and HNE, monitoring the time course of GSH consumption. The residual GSH was determined as previously described.

[3] = biological target: T1, human recombinant AR (hAR); assay: Aldose reductase assay, GAL reduction
Method: as §1, §2

[4] = biological target: T1, human recombinant AR (hAR); assay: Aldose reductase assay, GSHNE reduction; details: up to 100 mM in the assay mixture; different substrate concentrations
Method: as §3
The human recombinant AR (hAR) was expressed and purified as previously described. […] The specific activity of purified hAR was 5.3 U/mg. The purified enzyme was stored at −80 °C in a 10 mM sodium phosphate buffer pH 7.0 containing 2 mM DTT and 30% (w/v) glycerol. Before use, the enzyme was extensively dialysed against a 10 mM sodium phosphate buffer pH 7.0.
The protein concentration was determined according to Bradford[35], using BSA as a standard protein. HNE was prepared as previously described. […] The residual GSH was determined as previously described.

[5] = DMSO 40 mM, apparent, ESI complex
[6] = DMSO 100 mM, apparent, ESI complex
[7] = DMSO 200 mM, apparent, ESI complex
[8] = No DMSO, dissociation constant of ESI complex

SMILES	Inhibition model [1]	Ki′ [1, 5] [µM]	Ki′ [1, 6] [µM]	Ki′ [1, 7] [µM]	Ki′ [1, 8] [µM]	Inhibition model [2]	Ki′ [2, 5] [µM]	Ki′ [2, 6] [µM]	Ki′ [2, 7] [µM]	Ki′ [2, 8] [µM]	Inhibition model ([1]; listed as rutin)	Inhibition model ([2]; listed as rutin)	effect on the reduction of GAL catalysed by AR [3]	Ki ([1]; DMSO 40 mM, apparent) [µM]	Ki ([1]; DMSO 100 mM, apparent) [µM]	Ki ([1]; DMSO 200 mM, apparent) [µM]	Ki ([1]; No DMSO) [µM]	effect on enzyme activity with GSHNE as substrate [4]	inhibition of AR activity ([1]; 0.7% (v/v) (approximately 0.17 M), L-idose 0.4–4 mM)	inhibition of AR activity ([2]; 0.7% (v/v) (approximately 0.17 M), HNE 40–110 µM)
COc1ccc(CCC(=O)c2c(O)cc(O[C@@H]3O[C@H](CO)[C@@H](O)[C@H](O)[C@H]3O[C@@H]3O[C@@H](C)[C@H](O)[C@@H](O)[C@H]3O)cc2O)cc1O [NHDC, neohesperidin dihydrochalcone]	mixed inhibitors	286 ± 53	230 ± 35	283 ± 2	292 ± 17	uncompetitive inhibitors	134 ± 11	150 ± 22	199 ± 6	122 ± 19				114 ± 15	125 ± 16	194 ± 17	93 ± 17			
C[S+](C)[O-] [DMSO, dimethyl sulfoxide]	competitive inhibition					mixed type of inhibition							no effect					no effect of interference on the enzyme activity		
CO [methanol]																			less than 5%	less than 5%

More lines, main results first:

Inhibition model [1]	Ki′ [1, 5] [µM]	Ki′ [1, 6] [µM]	Ki′ [1, 7] [µM]	Ki′ [1, 8] [µM]	Inhibition model [2]	Ki′ [2, 5] [µM]	Ki′ [2, 6] [µM]	Ki′ [2, 7] [µM]	Ki′ [2, 8] [µM]	Inhibition model ([1]; listed as rutin)	Inhibition model ([2]; listed as rutin)	effect on the reduction of GAL catalysed by AR [3]	SMILES	Ki ([1]; DMSO 40 mM, apparent) [µM]	Ki ([1]; DMSO 100 mM, apparent) [µM]	Ki ([1]; DMSO 200 mM, apparent) [µM]	Ki ([1]; No DMSO) [µM]	effect on enzyme activity with GSHNE as substrate [4]	inhibition of AR activity ([1]; 0.7% (v/v) (approximately 0.17 M), L-idose 0.4–4 mM)	inhibition of AR activity ([2]; 0.7% (v/v) (approximately 0.17 M), HNE 40–110 µM)
Mixed	62.9 ± 2.3	50.3 ± 4.8	60.9 ± 2.1	52.5 ± 3.8	Mixed	64.7 ± 1.4	73.4 ± 7.5	99.5 ± 7.3	56.5 ± 4.5				O=C(CCc1ccc(O)cc1)c1c(O)cc(O)cc1O [Phloretin, phloretin]							
Mixed	7.6 ± 1.2	11.7 ± 0.5	12.7 ± 2.0	9.3 ± 1.1	Uncompetitive	10.5 ± 2.0	12.8 ± 1.9	16.5 ± 1.9	9.2 ± 0.9	mixed inhibitors	uncompetitive inhibitors		C[C@@H]1O[C@@H](OC[C@H]2O[C@@H](Oc3c(-c4ccc(O)c(O)c4)oc4cc(O)cc(O)c4c3=O)[C@H](O)[C@@H](O)[C@@H]2O)[C@H](O)[C@H](O)[C@H]1O [Rutin, rutin]	20.3 ± 1.1	24.8 ± 3.8	45.6 ± 5.5	17.8 ± 3			
